The source of these data is patent US20220033406A1, “C[…] AS ANTI-VIRALS” (priority 2018, published 2022).

As a reminder, the IC50 is the midpoint of a concentration-inhibition curve. Broadly, the EC50 is the concentration that produces a half-maximal response.

Each structure is given as a SMILES string. Bounds are passed on as bounds.

The target in test [1] is T1, Recombinant full-length HIV-1 Reverse Transcriptase (HIVrt) (Human immunodeficiency virus type 1 group M subtype B, UniProt P04585).
T1 construct: Recombinant full-length HIV-1 Reverse Transcriptase (HIVrt); purchased Abcam ab63979
As to the kind of experiment: Inhibition of HIV reverse transcriptase (RdDp assay). The class given is biochemical. The following applies: 1 nM HIVrt, 30° C., 40 min, 3H-TTP incorporation; Table 3 triphosphates. On the procedure:
Recombinant full-length HIV-1 Reverse Transcriptase (HIVrt) was purchased from Abcam, catalog #ab63979. The last 385 nucleotide region of the HCV anti-genome complementary to the 5′ untranslated region (c5′UTR) was synthesized using T7 RNA polymerase Megascript kit from Ambion (Cat #AM1333). A DNA oligo served as an internal initiation primer and was purchased from IDT. Unless otherwise specified, reaction samples consisted of 20 nM c5′UTR RNA, 100 nM DNA primer, and 1 nM HIVrt, mixed together in a buffer containing 50 mM Tris pH 7.5, 100 mM KCl, 4 mM dithiothreitol (DTT), and 12.5 mM MgCl2. Reactions were initiated at 30° C. by adding 0.1 μM adenosine triphosphate (dATP), 0.1 μM cytosine triphosphate (dCTP), 1 μM guanosine triphosphate (dGTP), and 0.32 μM ^3H-thymidine triphosphate (^3H-TTP), in a final volume of 50 μL. After 40-mins incubation, the reaction was terminated by adding 60 μL of chilled 20% (w/v) trichloroacetic acid with 500 μM ATP to precipitate nucleic acids. After incubation at 4° C. for 1 h, the sample underwent filtration on a multiscreen BV […] 96-well plate (Millipore). 40 μL Microscint-20 (Perkin Elmer) was added to the well and the counts in the sample were determined by a Trilux Microbeta microplate scintillation reader (Wallac).
All data were analyzed with GraphPad Prism. The compound concentration at which the enzyme-catalyzed rate was reduced by 50% (IC50) was calculated by fitting the data to the equation Y=% Min+(% Max−% Min)/(1+X/IC50), where Y corresponds to the percent relative enzyme activity, % Min is the residual relative activity at saturating compound concentration, % Max is the relative maximum enzyme activity, and X corresponds to the compound concentration. The Ki was calculated using the Cheng-Prusoff equation assuming competitive inhibition relative to natural dNTP incorporation: K=IC50/(1+[dNTP]/Km), where [dNTP] is the concentration of natural dNTP and Km is the apparent Km for dNTP. The standard HIVrt RNA-dependent DNA polymerization (RdDp) assay was used to determine the IC50 values.

Test [2] deals with T2, Recombinant full-length HBV polymerase (HBVpol) (Hepatitis B virus genotype D subtype ayw, UniProt P03156).
T2 construct: Recombinant full-length HBV polymerase(HBVpol) was expressed in SF9 cells; made in house; host or cells: SF9 insect cells
As to the kind of experiment: Inhibition of HBV polymerase (RdDp assay). The class given is biochemical. The following applies: HBVpol expressed in SF9 cells, 30° C., 120 min, 3H-TTP incorporation; Table 3 triphosphates; read-out: HBVrt IC50.

The test system of test [3] is VSV-G pseudotyped HIV NL4-3. As to the kind of experiment: microbe, parasite or virus in culture. The class given is cell-based. The following applies: Human immunodeficiency virus 1, NL43, 72 h, read-out: HIV EC50 (uM).
A further test relates to HBV. The experiment in a line: Inhibition of HBV in HepG2.117 cells (anti-HBV activity, qPCR). The class given is cell-based. The following applies: Hepatitis B virus, HepG2.117, 96 h, HBV viral DNA copy numbers in supernatant by qPCR. Background: Quantitative PCR measures a nucleic acid by following its amplification.
Where [4] appears, read: Table 4 phosphoramidate prodrugs.

T2 sequence (P03156 whole entry): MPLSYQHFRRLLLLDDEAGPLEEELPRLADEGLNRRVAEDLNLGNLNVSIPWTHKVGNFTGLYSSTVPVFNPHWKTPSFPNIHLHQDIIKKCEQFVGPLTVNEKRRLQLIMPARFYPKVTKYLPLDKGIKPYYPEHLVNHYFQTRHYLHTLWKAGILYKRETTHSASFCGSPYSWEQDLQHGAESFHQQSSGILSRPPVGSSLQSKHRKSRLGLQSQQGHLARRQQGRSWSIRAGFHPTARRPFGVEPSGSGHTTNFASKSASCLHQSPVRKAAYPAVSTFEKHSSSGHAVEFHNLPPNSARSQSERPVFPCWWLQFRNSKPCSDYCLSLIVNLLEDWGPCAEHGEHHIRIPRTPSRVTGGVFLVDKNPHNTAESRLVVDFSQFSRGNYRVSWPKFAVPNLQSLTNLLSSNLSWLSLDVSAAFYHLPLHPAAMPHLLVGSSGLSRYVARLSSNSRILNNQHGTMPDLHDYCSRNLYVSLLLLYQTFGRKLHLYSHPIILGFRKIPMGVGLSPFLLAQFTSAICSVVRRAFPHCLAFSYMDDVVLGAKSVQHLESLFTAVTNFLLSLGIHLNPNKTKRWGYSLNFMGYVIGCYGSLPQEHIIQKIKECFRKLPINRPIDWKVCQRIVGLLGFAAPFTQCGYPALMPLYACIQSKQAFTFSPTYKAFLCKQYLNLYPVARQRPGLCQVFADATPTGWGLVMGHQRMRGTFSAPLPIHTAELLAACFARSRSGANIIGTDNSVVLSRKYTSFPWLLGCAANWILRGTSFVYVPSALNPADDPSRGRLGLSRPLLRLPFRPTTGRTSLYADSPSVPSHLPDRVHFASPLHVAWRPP

`C=C1[C@@H](n2cc(C)c(=O)[nH]c2=O)C[C@H](O)[C@@]1(C#N)COP(=O)(O)OP(=O)(O)OP(=O)(O)O` [Example 32, ((1S,3S,5S)-1-Cyano-5-hydroxy-3-(5-methyl-2,4-dioxo-3,4-dihydropyrimidin-1(2H)-yl)-2-methylenecyclopentyl)methyl Tetrahydrogen Triphosphate]: the figures for the IC50 in test [1] and in test [2] were 476 nM and more than 1000 nM, respectively.

Turning to `C=C1[C@@H](n2cnc3c(=O)[nH]c(N)nc32)C[C@H](O)[C@@]1(F)COP(=O)(O)OP(=O)(O)OP(=O)(O)O` [Example 25, ((1S,3S,5S)-3-(2-Amino-6-oxo-1,6-dihydro-9H-purin-9-yl)-1-fluoro-5-hydroxy-2-methylenecyclopentyl)methyl Tetrahydrogen Triphosphate], the IC50 in test [1] was determined as 251 nM; in test [2] it was 9.9 nM.

In the case of `C=C1[C@@H](n2cc(C)c(=O)[nH]c2=O)C[C@H](O)[C@@]1(F)COP(=O)(O)OP(=O)(O)OP(=O)(O)O` [Example 24, ((1S,3S,5S)-1-Fluoro-5-hydroxy-3-(5-methyl-2,4-dioxo-3,4-dihydropyrimidin-1(2H)-yl)-2-methylenecyclopentyl)methyl Tetrahydrogen Triphosphate], the values for the IC50 in test [1] and in test [2] were 267 nM and 2.9 nM, respectively.

On to `C=C1[C@@H](n2cnc3c(=O)[nH]c(N)nc32)C[C@H](O)[C@@]1(CF)COP(=O)(O)OP(=O)(O)OP(=O)(O)O` [Example 28, ((1S,3S,5S)-3-(2-Amino-6-oxo-1,6-dihydro-9H-purin-9-yl)-1-(fluoromethyl)-5-hydroxy-2-methylenecyclopentyl)methyl Tetrahydrogen Triphosphate], for which the IC50 in test [1] stood at 749 nM.

On to `C=C1[C@@H](n2ccc3c(N)ncnc32)C[C@H](O)[C@@]1(F)COP(=O)(O)OP(=O)(O)OP(=O)(O)O` [Example 27, ((1S,3S,5S)-3-(4-Amino-7H-pyrrolo[2,3-d]pyrimidin-7-yl)-1-fluoro-5-hydroxy-2-methylenecyclopentyl)methyl Tetrahydrogen Triphosphate], for which the IC50 in test [1] turned out to be 65.9 nM; in test [2], 7.2 nM.

With `C=C[C@]1(COP(=O)(O)OP(=O)(O)OP(=O)(O)O)C(=C)[C@@H](n2cnc3c(N)ncnc32)C[C@@H]1O` [Example 37, ((1R,3S,5S)-3-(6-Amino-9H-purin-9-yl)-5-hydroxy-2-methylene-1-vinylcyclopentyl)methyl Tetrahydrogen Triphosphate], in test [1], the IC50 is more than 10000 nM.

As for `C=C1[C@@H](n2cnc3c(N)ncnc32)C[C@H](O)[C@@]1(C#N)COP(=O)(O)OP(=O)(O)OP(=O)(O)O` [Example 34, ((1S,3S,5S)-3-(6-Amino-9H-purin-9-yl)-1-cyano-5-hydroxy-2-methylenecyclopentyl)methyl Tetrahydrogen Triphosphate], in test [1], the IC50 is more than 10000 nM.

Consider `C=C1[C@@H](n2cc(C)c(=O)[nH]c2=O)C[C@H](O)[C@@]1(CF)COP(=O)(O)OP(=O)(O)OP(=O)(O)O` [Example 30, ((1S,3S,5S)-1-(Fluoromethyl)-5-hydroxy-3-(5-methyl-2,4-dioxo-3,4-dihydropyrimidin-1(2H)-yl)-2-methylenecyclopentyl)methyl Tetrahydrogen Triphosphate], for which, in test [1], the IC50 is 1330 nM.

On to `C#C[C@]1(COP(=O)(O)OP(=O)(O)OP(=O)(O)O)C(=C)[C@@H](n2cnc3c(N)ncnc32)C[C@@H]1O` [Example 36], for which the IC50 in test [1] is 33.1 nM.

As for `C=C1[C@@H](n2cnc3c(N)ncnc32)C[C@H](O)[C@@]1(F)COP(=O)(O)OP(=O)(O)OP(=O)(O)O` [Example 26, ((1S,3S,5S)-3-(6-Amino-9H-purin-9-yl)-1-fluoro-5-hydroxy-2-methylenecyclopentyl)methyl Tetrahydrogen Triphosphate], the figures for the IC50 in test [1] and in test [2] were 81 nM and 8.2 nM, respectively.

As for `C=C1[C@@H](n2ccc(N)nc2=O)C[C@H](O)[C@@]1(C#N)COP(=O)(O)OP(=O)(O)OP(=O)(O)O` [Example 33, ((1S,3S,5S)-3-(4-Amino-2-oxopyrimidin-1(2H)-yl)-1-cyano-5-hydroxy-2-methylenecyclopentyl)methyl Tetrahydrogen Triphosphate], the results for the IC50 in test [1] and in test [2] were 77.9 nM and 220 nM, respectively.

Regarding `C=C1[C@@H](n2cnc3c(N)ncnc32)C[C@H](O)[C@@]1(CCl)COP(=O)(O)OP(=O)(O)OP(=O)(O)O` [Example 31, ((1S,3S,5S)-3-(6-Amino-9H-purin-9-yl)-1-(chloromethyl)-5-hydroxy-2-methylenecyclopentyl)methyl Tetrahydrogen Triphosphate], in test [1], the IC50 amounted to 363 nM.

`C=C1[C@@H](n2cnc3c(=O)[nH]c(N)nc32)C[C@H](O)[C@@]1(C#N)COP(=O)(N[C@@H](C)C(=O)OC(C)C)Oc1ccccc1` (single isomer, unassigned) [Example 44, Isopropyl ((S*)-(((1S,3S,5S)-3-(2-amino-6-oxo-1,6-dihydro-9H-purin-9-yl)-1-cyano-5-hydroxy-2-methylenecyclopentyl)methoxy)(phenoxy)phosphoryl)-L-alaninate]: the figures for the EC50 (in test [3]; with HBV (setting [4])) were 2.29 µM and 459 nM, respectively.

As for `C=C1[C@@H](n2cnc3c(N)ncnc32)C[C@H](O)[C@@]1(CF)COP(=O)(N[C@@H](C)C(=O)OC(C)C)Oc1ccccc1` (stereo partly drawn) [Example 40, Isopropyl ((((1S,3S,5S)-3-(6-amino-9H-purin-9-yl)-1-(fluoromethyl)-5-hydroxy-2-methylenecyclopentyl)methoxy)(phenoxy)phosphoryl)-L-alaninate], the EC50 in test [3] was found to be 0.144 µM; with HBV (setting [4]), 13.7 nM.

As to `C=C1[C@@H](n2cnc3c(=O)[nH]c(N)nc32)C[C@H](O)[C@]1(CO)CF` [Example 10, 2-Amino-9-((1S,3S,4S)-3-(fluoromethyl)-4-hydroxy-3-(hydroxymethyl)-2-methylenecyclopentyl)-1,9-dihydro-6H-purin-6-one], the values for the EC50 (in test [3]; in the test on HBV (Table 2 nucleosides)) were 0.662 µM and 166 nM, respectively.

Take `C#C[C@]1(COP(=O)(N[C@@H](C)C(=O)OC(C)C)Oc2ccccc2)C(=C)[C@@H](n2cnc3c(N)ncnc32)C[C@@H]1O` (stereo partly drawn) [Example 38, Isopropyl ((((1R,3S,5S)-3-(6-amino-9H-purin-9-yl)-1-ethynyl-5-hydroxy-2-methylenecyclopentyl)methoxy)(phenoxy)phosphoryl)-L-alaninate]: the EC50 in test [3] was determined as 0.0506 µM; in the test with HBV (setting [4]), 2370 nM.

For `C=C1[C@@H](n2cc(C)c(=O)[nH]c2=O)C[C@H](O)[C@@]1(C#N)COP(=O)(N[C@@H](C)C(=O)OC(C)C)Oc1ccccc1` (stereo partly drawn) [Example 41, Isopropyl ((((1S,3S,5S)-1-cyano-5-hydroxy-3-(5-methyl-2.4-dioxo-3.4-dihydropyrimidin-1(2H)-yl)-2-methylenecyclopentyl)methoxy)(phenoxy)phosphoryl)-L-alaninate], the EC50 in test [3] is 10.2 µM; in the test with HBV (setting [4]), more than 10000 nM.

Turning to `C=C1[C@H](CO)[C@@H](O)C[C@@H]1n1ccc2c(N)ncnc21` [Example 9, (1S,2R,4S)-4-(4-Amino-7H-pyrrolo[2,3-d]pyrimidin-7-yl)-2-(hydroxymethyl)-3-methylenecyclopentan-1-ol], the EC50 was more than 33.3 µM in test [3] and 7410 nM in the test with HBV (Table 2 nucleosides).

In the case of `C=C1[C@@H](n2cnc3c(=O)[nH]c(N)nc32)C[C@H](O)[C@@]1(C#N)COP(=O)(O)OP(=O)(O)OP(=O)(O)O` [Example 35, ((1S,3S,5S)-3-(2-Amino-6-oxo-1,6-dihydro-9H-purin-9-yl)-1-cyano-5-hydroxy-2-methylenecyclopentyl)methyl Tetrahydrogen Triphosphate], the IC50 in test [1] came to 260 nM.

Regarding `C=C1[C@H](COP(=O)(O)OP(=O)(O)OP(=O)(O)O)[C@@H](O)C[C@@H]1n1ccc2c(N)ncnc21` [Example 22, ((1R,3S,5S)-3-(4-Amino-7H-pyrrolo[2,3-d]pyrimidin-7-yl)-5-hydroxy-2-methylenecyclopentyl)methyl Tetrahydrogen Triphosphate], the IC50 in test [1] is 158 nM.
